How the values were obtained:
Assay type in all cases: functional
[1] = tested on: HL-60(TB); test: Anticancer activity against Homo sapiens (human) HL-60(TB) cells after 48 hr by SRB assay; conditions: HL-60, 48 h; for CC50: read-out: LC50 (the source's name)
[2] = tested on: SK-OV-3; test: Anticancer activity against Homo sapiens (human) SKOV3 cells after 48 hr by SRB assay; conditions: SK-OV-3, 48 h
[3] = tested on: LOX IMVI; test: Anticancer activity against Homo sapiens (human) LOXIMVI cells after 48 hr by SRB assay
[4] = tested on: HCC 2998; test: Anticancer activity against Homo sapiens (human) HCC2998 cells after 48 hr by SRB assay; conditions: HCC 2998, 48 h
[5] = tested on: NCI-H226; test: Anticancer activity against Homo sapiens (human) NCI-H226 cells after 48 hr by SRB assay; conditions: NCI-H226, 48 h
[6] = tested on: HOP-92; test: Anticancer activity against Homo sapiens (human) HOP92 cells after 48 hr by SRB assay; conditions: HOP-92, 48 h; for CC50: read-out: LC50 (the source's name)
[7] = tested on: SR; test: Anticancer activity against Homo sapiens (human) SR cells after 48 hr by SRB assay; conditions: for CC50: read-out: LC50 (the source's name)
[8] = tested on: RPMI-8226; test: Anticancer activity against Homo sapiens (human) RPMI8226 cells after 48 hr by SRB assay; conditions: RPMI-8226, 48 h; for CC50: read-out: LC50 (the source's name)
[9] = tested on: CCRF-CEM; test: Anticancer activity against Homo sapiens (human) CCRF-CEM cells after 48 hr by SRB assay
[10] = tested on: MCF7; test: Anticancer activity against Homo sapiens (human) MCF7 cells after 48 hr by SRB assay; conditions: MCF7, 48 h; for CC50: read-out: LC50 (the source's name)
[11] = tested on: SK-MEL-28; test: Anticancer activity against Homo sapiens (human) SK-MEL-28 cells after 48 hr by SRB assay; conditions: SK-MEL-28, 48 h
[12] = tested on: PC-3; test: Anticancer activity against Homo sapiens (human) PC3 cells after 48 hr by SRB assay; conditions: PC-3, 48 h
[13] = tested on: RXF 393; test: Anticancer activity against Homo sapiens (human) RXF393 cells after 48 hr by SRB assay; conditions: RXF 393, 48 h

| Structure (SMILES) | GI50 [1] [µM] | TGI [1] [µM] | CC50 [1] [µM] | GI50 [2] [µM] | LC50 (50% lethal concentration) [2] [µM] | TGI [2] [µM] | GI50 [3] [µM] | LC50 (50% lethal concentration) [3] [µM] | TGI [3] [µM] | GI50 [4] [µM] | LC50 [4] [µM] | TGI [4] [µM] | GI50 [5] [µM] | LC50 [5] [µM] | TGI [5] [µM] | GI50 [6] [µM] | TGI [6] [µM] | CC50 [6] [µM] | GI50 [7] [µM] | TGI [7] [µM] | further results |
| --- | --- | --- | --- | --- | --- | --- | --- | --- | --- | --- | --- | --- | --- | --- | --- | --- | --- | --- | --- | --- | --- |
| Cc1ccc(Nn2c(SCC(=O)Nc3nc(-c4ccccc4)cs3)nc(C)c2C)cc1 | 4.64 | 39.1 | > 100 | 10.6 | > 100 | > 100 | 3.32 | > 100 | 19.3 |  |  |  |  |  |  |  |  |  |  |  |  |
| COc1ccc(Nn2c(SCC(=O)Nc3nc(-c4ccc(Cl)cc4)cs3)nc(C)c2C)cc1 | > 100 | 59.1 | > 100 | 4.24 | > 100 | > 100 | 3.02 | > 100 | 44.2 | 3.07 | > 100 | 9.91 | 3.26 | > 100 | > 100 | 2.42 | 7.8 | > 100 | 7.02 | > 100 | CC50 [7]: > 100 µM; GI50 [8]: 5.8 µM; TGI [8]: > 100 µM; CC50 [8]: > 100 µM; GI50 [9]: 3.82 µM; LC50 (concentration killing 50% of cells) [9]: > 100 µM; TGI [9]: > 100 µM; GI50 [10]: 3.36 µM; TGI [10]: 25.5 µM; CC50 [10]: > 100 µM; GI50 [11]: 18 µM; LC50 [11]: > 100 µM; TGI [11]: > 100 µM; GI50 [12]: 2.65 µM; LC50 (concentration killing 50% of cells) [12]: > 100 µM; TGI [12]: > 100 µM; GI50 [13]: 3.53 µM; LC50 (50% lethal concentration) [13]: > 100 µM; TGI [13]: 9.64 µM |
| Cc1nc(SCC(=O)Nc2nc(-c3ccc(Cl)cc3)cs2)n(Nc2ccccc2)c1C | 2.99 | > 100 | > 100 | 5.91 | 47.4 | 19.8 | 1.78 | 7.79 | 3.72 | 10.6 | 82.6 | 29.5 | 3.37 | 93.9 | 18.8 | 1.61 | 6.89 | 38.9 | 3.81 | > 100 | CC50 [7]: > 100 µM; GI50 [8]: 3.55 µM; TGI [8]: > 100 µM; CC50 [8]: > 100 µM; GI50 [9]: 5.49 µM; LC50 (concentration killing 50% of cells) [9]: > 100 µM; TGI [9]: > 100 µM; GI50 [10]: 2.94 µM; TGI [10]: 11.4 µM; CC50 [10]: 52.2 µM; GI50 [11]: 10.1 µM; LC50 [11]: 59.7 µM; TGI [11]: 24.6 µM; GI50 [12]: 2.34 µM; LC50 (concentration killing 50% of cells) [12]: 38.4 µM; TGI [12]: 11 µM; GI50 [13]: 2.97 µM; LC50 (50% lethal concentration) [13]: 26.8 µM; TGI [13]: 7.33 µM |
